One data set in a line: water solubility. It counts as physicochemical. The following applies: for water solubility: 25° C.
The nature of data set [1]: crystal formation on standing (sodium salt, five months at 5°-10° C.). The following applies: standing for over five months at 5°-10° C. Format: physicochemical.
A short description of data set [2]: Acute Intravenous Toxicity Studies in Mice. The following applies: mouse, in vivo, lateral tail vein, solutions containing 28.27% iodine, 1 ml./min., seven day observation, read-out: LD50 of N-Methylglucamine Salt, I.V. (Mice). How it is done:
(§1) Toxicity evaluations were carried out on solutions of the N-methylglucaminesalt of 5-gluconamido-2,4,6-triiodo-N-methylisophthalamic acid by three different techniques and on solutions of the N-methylglucamine salt of 3-acetamido-2,4,6-triiodo-5-trishydroxymethylacetamido-benzoic acid by two different techniques. The techniques utilized are outlined below.
Swiss Albino mice (Charles River) were dosed in the lateral tail vein with solutions of the iodinated compound containing 28.27% of iodine, injected at the rate of 1 ml./min. […] The LD50 values were calculated by the method of Litchfield and Wilcoxon (J. of Pharmac. and Exptl. Therap. 96:99-113, 1949).

Data set [3] can be described thus: Intracerebral Toxicity in Mice. The following applies: mouse, in vivo, fixed volumes of various concentrations, seven day observation, read-out: LD50 of N-Methylglucamine Salt, Intracerebral (Mice). On the procedure: as §1
Swiss Albino mice (Charles River) were used. Fixed volumes of solutions of various concentrations of the iodinated compounds were injected intracerebrally via a 27 gauge needle, (1/4 inch length) according to the method of Haley, et al. (Br. J. of Pharmac. 12:12-15, 1957). The animals were observed immediately after injections and daily throughout a seven day observation period. The LD50 values were calculated by the method of Litchfield and Wilcoxon (J. of Pharmac. and Exptl. Therap. 96:99-113, 1949).

Data set [4] can be described thus: Intracisternal Toxicity in Rats. The following applies: rat, in vivo, two day observation, read-out: LD50 of N-Methylglucamine Salt, Intracisternal (Rats). The arrangement: species or system Sprague Dawley (Carworth) rats. On the procedure:
as §1
Sprague Dawley (Carworth) rats were used. The method used is a variation of the procedure outlined by Melartin et al. (Invest. Rad. 5:13-21, 1970). After dosing, the animals were housed individually, and observed for immediate reactions and periodically for a two day observation period. The LD50 values were calculated according to the method of Litchfield and Wilcoxon, (J. of Pharmac. and Exptl. Therap. 96:99-115, 1949).

Counter-ions that a name gives are not always drawn. A value given as a limit tells only on which side of the number the result lay.

By solubility is commonly meant how much of the substance goes into solution per volume. What is called LD50 is the dose expected to kill half of the subjects tested.

Regarding `CC(=O)Nc1c(I)c(NC(=O)C(CO)(CO)CO)c(I)c(C(=O)O)c1I` [Example 4, sodium salt of 3-acetamido-2,4,6-triiodo-5-trishydroxymethylacetamido-benzoic acid], the water solubility in “water solubility” was 63.5-66 % w/v. As to `CNC(=O)c1c(I)c(NC(=O)[C@H](O)[C@@H](O)[C@H](O)[C@H](O)CO)c(I)c(C(=O)O)c1I` [Example 2, Sodium 5-Gluconamido-2,4,6-triiodo-N-methylisophthalamate], the solubility in “water solubility” (water, read-out: solubility of the sodium salt) was above 1010 mg/mL. The “crystals formed after standing” value in data set [1] is “no crystals formed”.

On to `CC(=O)Nc1c(I)c(NC(=O)C(CO)(CO)CO)c(I)c(C(=O)O)c1I` [Example 3, 3-Acetamido-2,4,6-triiodo-5-(trishydroxymethyl)acetamido-benzoic Acid], for which, in the data set “water solubility”, the water solubility is reported as 2-2.5 % w/v. `CNC(=O)c1c(I)c(NC(=O)[C@H](O)[C@@H](O)[C@H](O)[C@H](O)CO)c(I)c(C(=O)O)c1I` [N-methylglucaminesalt of 5-gluconamido-2,4,6-triiodo-N-methylisophthalamic acid]: the 50% lethal dose (LD50) at 168 h was determined as 5200 mg/kg in data set [2] and 620 mg/kg in data set [3]. Also, the LD50 at 48 h in data set [4] came to 355 mg/kg. As to `CC(=O)Nc1c(I)c(NC(=O)C(CO)(CO)CO)c(I)c(C(=O)O)c1I` [N-methylglucamine salt of 3-acetamido-2,4,6-triiodo-5-trishydroxymethylacetamido-benzoic acid], the median lethal dose (LD50) at 168 h in data set [2] stood at 6000 mg/kg; in data set [3], 150 mg/kg.

Values taken from US4160015A, “2,4,6-Triiodobenzoic acid derivatives and their use as x-ray contrast agents” (priority 1978, dated 1979).
